The values that follow come from patent publication US20220136016A1, “MODIFIED CHLORAMPHENICOL […] AND BIOSYNTHESIS METHOD OF MAKING ESTERS USING SAME” (UNIVERSITY OF TENNESSEE RESEARCH FOUNDATION, priority 2020, published 2022).

Read-outs that look alike come from different tables or passages of the source.

Data set [1] addresses CATec3 Y20F (Escherichia coli, UniProt P00484, Y20F). The class given is biochemical.
Data set [2] in a line: Melting temperature (Tm) of purified His-tagged CATs. The class given is physicochemical. The note with it: purified CAT.
Experimental: To determine in vitro melting temperatures and catalytic efficiencies, His-tagged CATs were purified and characterized using know methods. In the 5,5′-dithiobis-2-nitrobenzoic acid (DTNB) assay, final enzyme concentrations of 0.05-0.1 μg/mL and 5-10 μg/mL were used for the reactions with chloramphenicol and alcohols, respectively. […] The enzyme reactions were held at 50° C. in a BioTek microplate reader for at least 30 minutes with measurements every one minute. The kinetic parameters were calculated using a non-linear regression method known to one of skill in the art.
The mark [3] stands for this setting: CATec3 Y20F, 50° C., 2 mM acetyl-CoA, average±standard deviation.

In general, Km refers to the substrate concentration at which the rate is half of its maximum. A word on the kcat: it is the number of substrate molecules converted per active site and unit of time at saturation.

As to `COc1cccc(CO)c1` [3-Methoxybenzyl alcohol], in data set [1] (setting [3]), the Michaelis-Menten constant (Km) is 10 ± 1.2 mM and the kcat worked out at 18.8 ± 0.9 s⁻¹.
With `CC/C=C\CCO` [3-cis-Hexen-1-ol], the catalytic constant (kcat) in data set [1] (setting [3]) was determined as 2.3 ± 0.2 s⁻¹. In addition, the Michaelis-Menten constant (Km) in data set [1] (CATec3 Y20F, 50° C., 2 mM acetyl-CoA, average±standard deviation, read-out: KM) amounted to 6.4 ± 2.2 mM.
As for `OCc1ccccc1` [Benzyl alcohol], in data set [1] (setting [3]), the Km was 12.2 ± 1.6 mM and the catalytic constant (kcat) was 1.6 ± 0.1 s⁻¹.
On to `O=C(N[C@H](CO)[C@H](O)c1ccc([N+](=O)[O-])cc1)C(Cl)Cl` [Chloramphenicol], for which, in data set [1] (setting [3]), the Michaelis-Menten constant (Km) was 0.2 ± 0.05 mM and the catalytic constant (kcat) turned out to be 105.5 ± 6.9 s⁻¹.
As to `CC(C)=CCCC(C)CCO` (centres unmarked) [Citronellol], in data set [1] (setting [3]), the Michaelis-Menten constant (Km) was found to be 3.2 ± 0.3 mM and the kcat came to 7.7 ± 0.2 s⁻¹.
For the molecule `CCO` [Ethanol], the kcat in data set [1] (setting [3]) was 0.8 ± 1.0 s⁻¹.
For `OCc1ccco1` [Furfuryl alcohol], in data set [1] (setting [3]), the Michaelis constant (Km) was 37.1 ± 9.8 mM and the turnover number (kcat) came out at 1.1 ± 0.1 s⁻¹.
As for `CC(C)=CCC/C(C)=C/CO` [Geraniol], in data set [1] (setting [3]), the Michaelis constant (Km) turned out to be 4.1 ± 0.4 mM and the turnover number (kcat) stood at 8.0 ± 0.2 s⁻¹.
On the same counts, the results for `CCCCCCO` [Hexanol] are 29.2 ± 4 mM and 6.4 ± 0.4 s⁻¹.
On the same counts, the results for `CC(C)CCO` [Isoamyl alcohol] are 59.9 ± 26.6 mM and 2.8 ± 0.3 s⁻¹.
As to `CC(C)CO` [Isobutanol], the kcat in data set [1] (setting [3]) turned out to be 2.3 ± 0.1 s⁻¹.
On to `CC(C)=CCC/C(C)=C\CO` [Nerol], for which, in data set [1] (setting [3]), the Michaelis constant (Km) was found to be 4.1 ± 0.8 mM and the kcat was determined as 2.2 ± 0.04 s⁻¹.
Turning to `CCCCCO` [Pentanol], in data set [1] (setting [3]), the Km was determined as 64.7 ± 33.6 mM and the kcat was 3.9 ± 1.0 s⁻¹.
On the same counts, the results for `OCCc1ccccc1` [Phenylethyl alcohol] are 10.6 ± 0.4 mM and 6.1 ± 0.1 s⁻¹.
For `CC(C)=CCO` [Prenol], the kcat in data set [1] (setting [3]) amounted to 2.7 ± 0.3 s⁻¹.
As for Butanol, the kcat in data set [1] worked out at 1.9 ± 0.4 s⁻¹.

B1: CATec3 F97W Y20F: CATec3 with Y20F mutation in combination with F97W (protein, UniProt P00484 1-213, looked up, variant Y20F F97W)
Chloramphenicol …: MNYTKFDVKNWVRREHFEFFRHRLPCGFSLTSKIDITTLKKSLDDSAYKFYPVMIYLIAQAVNQFDELRMAIKDDELIVWDSVDPQFTVFHQETETWSALSCPYSSDIDQFMVNYLSVMERYKSDTKLFPQGVTPENHLNISALPWVNFDSFNLNVANFTDYFAPIITMAKYQQEGDRLLLPLSVQVHHAVCDGFHVARFINRLQELCNSKLK
Consider B1, for which the “melting temperature (Tm)” value in data set [2] amounted to 85.5 °C.

B2: CATec3 F97W: comparative CATec3 with F97W mutation (protein, UniProt P00484 1-213, looked up, variant F97W)
Chloramphenicol …: MNYTKFDVKNWVRREHFEFYRHRLPCGFSLTSKIDITTLKKSLDDSAYKFYPVMIYLIAQAVNQFDELRMAIKDDELIVWDSVDPQFTVFHQETETWSALSCPYSSDIDQFMVNYLSVMERYKSDTKLFPQGVTPENHLNISALPWVNFDSFNLNVANFTDYFAPIITMAKYQQEGDRLLLPLSVQVHHAVCDGFHVARFINRLQELCNSKLK
For the molecule B2, in data set [2], the “melting temperature (Tm)” value is 81.2 °C.

B3: CATec3: wild type CAT, type A, Escherichia coli; expressed in strain HSCT2107 (protein, listed as Escherichia coli)
chain: MNYTKFDVKNWVRREHFEFYRHRLPCGFSLTSKIDITTLKKSLDDSAYKFYPVMIYLIAQAVNQFDELRMAIKDDELIVWDSVDPQFTVFHQETETFSALSCPYSSDIDQFMVNYLSVMERYKSDTKLFPQGVTPENHLNISALPWVNFDSFNLNVANFTDYFAPIITMAKYQQEGDRLLLPLSVQVHHAVCDGFHVARFINRLQELCNSKLK
modifications: SITE (1)..(213) CAT3_ECOLX, Type A
notes: wild type CAT, type A, Escherichia coli; expressed in strain HSCT2107
Regarding B3, the “melting temperature (Tm)” value in data set [2] turned out to be 80.2 °C.

B4: CAT_GEO: wild type CAT, type A, Geomicrobium sp. (protein, listed as Geomicrobium sp.)
chain: MTFNPITLENWERKEYFNHYLNQQTTFSMTTDIEISSFKAAIKRKGYKFYPTFIYMVTEVINANESFRISFNEEGKLGYWEKLIPLYTVFDDQKQSFSNLWTDSTGNVLTFQEDYDRDVAEYNHIGGLFPKTPIPANTFPISMIPWNSFSGFNLNVGNGGNFLLPIITAGKYYSKGTATYLPVSLQVHHAVCDGYHAASFMNQLQELANTTNEWL
modifications: SITE (1)..(215) CAT_GEO, Type A
Turning to B4, the “melting temperature (Tm)” value in data set [2] stood at 43.5 °C.
